According to PubChem BioAssay AID180 (DTP/NCI, 2004):
Values joined by “and” are separate entries in the source; they are usually repeats but may differ in a detail not shown here. Equal entries are not always repeated.

System: BDF1 mice, Adenocarcinoma 755 s.c., tumor weight T/C
Assay: NCI In Vivo Anticancer Drug Screen. Data for tumor model Adenocarcinoma 755 (subcutaneous) in B6D2F1 (BDF1) mice
Settings: endpoint: mean tumor weight, higher = larger tumour
Method in brief: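 In vivo antitumor screen on a transplantable tumor line. Result equals the measure in compound-treated animals divided by the same measure in vehicle controls.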

What does the source list for `CCCCn1cnc2c(=O)[nH]cnc21`?
T/C (dose: 0.9 mg/kg/injection, schedule: Q01DX011 (ip), vehicle: carboxymethylcellulose (CMC)): 76 % of control; T/C (dose: 1.8 mg/kg/injection, schedule: Q01DX011 (ip), vehicle: carboxymethylcellulose (CMC)): 83 % of control; T/C (dose: 1.8 mg/kg/injection, schedule: Q01DX011 (oral), vehicle: carboxymethylcellulose (CMC)): 76 % of control; T/C (dose: 3.7 mg/kg/injection, schedule: Q01DX011 (ip), vehicle: carboxymethylcellulose (CMC)): 91 % of control; T/C (dose: 3.7 mg/kg/injection, schedule: Q01DX011 (oral), vehicle: carboxymethylcellulose (CMC)): 107 % of control; T/C (dose: 7.5 mg/kg/injection, schedule: Q01DX011 (ip), vehicle: carboxymethylcellulose (CMC)): 63 % of control; T/C (dose: 7.5 mg/kg/injection, schedule: Q01DX011 (oral), vehicle: carboxymethylcellulose (CMC)): 82 % of control; T/C (dose: 15.0 mg/kg/injection, schedule: Q01DX011 (oral), vehicle: carboxymethylcellulose (CMC)): 90 % of control; T/C (dose: 40.0 mg/kg/injection, schedule: Q01DX001 (ip), vehicle: other): 60 % of control; T/C (dose: 66.1 mg/kg/injection, schedule: Q01DX011 (ip), vehicle: other): 111 % of control; T/C (dose: 81.0 mg/kg/injection, schedule: Q01DX001 (ip), vehicle: other): 45 % of control; T/C (dose: 132.2 mg/kg/injection, schedule: Q01DX011 (ip), vehicle: other): 90 % of control; T/C (dose: 132.25 mg/kg/injection, schedule: Q01DX011 (ip), vehicle: carboxymethylcellulose (CMC)): 58 % of control; T/C (dose: 132.25 mg/kg/injection, schedule: Q01DX011 (oral), vehicle: carboxymethylcellulose (CMC)): 70 % of control; T/C (dose: 162.0 mg/kg/injection, schedule: Q01DX001 (ip), vehicle: other): 122 % of control; T/C (dose: 264.5 mg/kg/injection, schedule: Q01DX011 (ip), vehicle: carboxymethylcellulose (CMC)): 105 % of control; T/C (dose: 264.5 mg/kg/injection, schedule: Q01DX011 (ip), vehicle: other): 76 % of control; T/C (dose: 264.5 mg/kg/injection, schedule: Q01DX011 (oral), vehicle: carboxymethylcellulose (CMC)): 86 % of control; T/C (dose: 324.0 mg/kg/injection, schedule: Q01DX001 (ip), vehicle: other): 102 % of control; T/C (dose: 529.0 mg/kg/injection, schedule: Q01DX011 (oral), vehicle: carboxymethylcellulose (CMC)): 89 % of control

What does the source list for `CS(=O)(=O)OCC(=O)NCCNC(=O)COS(C)(=O)=O`?
T/C (dose: 8.75 mg/kg/injection, schedule: Q01DX011 (ip), vehicle: carboxymethylcellulose (CMC)): 107 % of control; T/C (dose: 17.5 mg/kg/injection, schedule: Q01DX011 (ip), vehicle: carboxymethylcellulose (CMC)): 50 % of control; T/C (dose: 35.0 mg/kg/injection, schedule: Q01DX011 (ip), vehicle: carboxymethylcellulose (CMC)): 49 % of control; T/C (dose: 40.0 mg/kg/injection, schedule: Q01DX011 (ip), vehicle: carboxymethylcellulose (CMC)): 61 % of control; T/C (dose: 60.0 mg/kg/injection, schedule: Q01DX011 (ip), vehicle: carboxymethylcellulose (CMC)): 20 % of control; T/C (dose: 70.0 mg/kg/injection, schedule: Q01DX011 (ip), vehicle: carboxymethylcellulose (CMC)): 12 % of control; T/C (dose: 95.0 mg/kg/injection, schedule: Q01DX011 (ip), vehicle: carboxymethylcellulose (CMC)): 9 % of control; T/C (dose: 140.0 mg/kg/injection, schedule: Q01DX011 (ip), vehicle: carboxymethylcellulose (CMC)): 2 % of control and 6 % of control; T/C (dose: 210.0 mg/kg/injection, schedule: Q01DX011 (ip), vehicle: carboxymethylcellulose (CMC)): 7 % of control

With `O=C(Nc1ccc(NC2=NCCN2)cc1)c1ccc(C(=O)Nc2ccc(NC3=NCCN3)cc2)cc1` as the compound, how does the T/C (dose: 4.0 mg/kg/injection, schedule: Q01DX011 (ip), vehicle: saline) read?
Its T/C is 96 % of control.

And the T/C (dose: 8.0 mg/kg/injection, schedule: Q01DX011 (ip), vehicle: saline)?
The T/C was 85 % of control.

What about the T/C (dose: 16.0 mg/kg/injection, schedule: Q01DX011 (ip), vehicle: saline) of the same compound?
Its T/C is 83 % of control.

`C[C@]12CCC(=O)C[C@H]1CC[C@@H]1[C@@H]2C(=O)C[C@@]2(C)[C@H]1CC[C@]2(C)O` was tested. Which T/C (dose: 10.0 mg/kg/injection, schedule: Q01DX011 (sc), vehicle: steriod suspending solution) did it give?
Its T/C is 85 % of control.

What about the T/C (dose: 100.0 mg/kg/injection, schedule: Q01DX011 (sc), vehicle: steriod suspending solution) of the same compound?
The T/C was 103 % of control.

What about the T/C (dose: 200.0 mg/kg/injection, schedule: Q01DX011 (sc), vehicle: steriod suspending solution) of the same compound?
Its T/C is 105 % of control.

Which T/C (dose: 65.0 mg/kg/injection, schedule: Q01DX011 (ip), vehicle: other) does the source give for `O=C(/C=C/C(=O)c1ccccc1)c1ccccc1` here?
Its T/C is 76 % of control.

What about the T/C (dose: 90.0 mg/kg/injection, schedule: Q01DX011 (ip), vehicle: other) of the same compound?
The T/C was 59 % of control.

And the T/C (dose: 125.0 mg/kg/injection, schedule: Q01DX011 (ip), vehicle: other)?
Its T/C is 51 % of control.
